Data as given in paper PMC6202310 (Molecular Cell, 2018).
≈ marks a conversion by molar mass, not a printed value.

How the values were obtained:
[1] = biological target: M. smegmatis RNAP (Mycolicibacterium smegmatis, UniProt P60281); experiment: In vitro transcription on T7A1 promoter template; assay type: biochemical; details: performed as with E. coli RNAP, started with ATP
[2] = biological target: E. coli RNAP βR143A (Escherichia coli, UniProt P0A8V2, R143A); assay type: biochemical; details: βR143A RNAP against wild-type RNAP
[3] = biological target: E. coli RNAP βH526R (Escherichia coli, UniProt P0A8V2, H526R); assay type: biochemical; details: at 2.5 mg/mL; mutation at βH526
[4] = biological target: wild-type E. coli RNAP (Escherichia coli, UniProt P0A8V2); experiment: In vitro transcription on T7A1 promoter template; assay type: biochemical; details: transcription started with ATP, in the absence of the CpA primer
[5] = tested on: methicillin-resistant Staphylococcus aureus (MRSA); experiment: Agar dilution MIC
[6] = biological target: E. coli RNAP βH526Y (Escherichia coli, UniProt P0A8V2, H526Y); assay type: biochemical; details: at 2.5 mg/mL; mutation at βH526
[7] = biological target: E. coli RNAP βH526P (Escherichia coli, UniProt P0A8V2, H526P); assay type: biochemical; details: at 2.5 mg/mL; mutation at βH526

CO[C@H]1/C=C/O[C@@]2(C)Oc3c(C)c(O)c4c(O)c(c(/C=N/N5CCN(C)CC5)c(O)c4c3C2=O)NC(=O)/C(C)=C\C=C\[C@H](C)[C@H](O)[C@@H](C)[C@@H](O)[C@@H](C)[C@H](OC(C)=O)[C@@H]1C [RIF, rifampicin]
synthesis of the trinucleotide (pppApUpC) [1]: partly allowed
effect of the βR143A mutation on sensitivity [2]: little effect
inhibition of RNAP [3]: no inhibition
formation of the triphosphorylated trinucleotide, pppApUpC [4]: allowed some of its production
inhibition of formation of the first dinucleotide, pppApU [4]: 3 fold
MIC ([5]; S. aureus Bel 97597): 2 µg/mL (≈ 2.43 µM)
MIC ([5]; S. aureus Bel 97598): > 128 µg/mL
MIC ([5]; S. aureus Fin 54511): > 128 µg/mL
MIC ([5]; S. aureus Fin 54518): > 128 µg/mL
inhibition of RNAP [6]: no inhibition
inhibition of RNAP [7]: no inhibition
